# In patent US6589993B2, “Treating vancomycin-intermediates and multiresistant staphylococci infection with thiamphenicol or a salt thereof” (Zambon Group S.p.A., priority 2000, dated 2003):
# Like-named read-outs stand apart in the source and are kept apart here.
# Assays:
# [1] = system: S. aureus vancomycin-intermediates (VISA) Met-R strains; assay: MIC determination (NCCLS broth microdilution), VISA Met-R strains; assay type: cell-based, Staphylococcus aureus; settings: for MIC: antibiotype Oxa, Cip, Clin, Ery
# Procedure: (§1) The MICs of thiamphenicol and of other antibiotics was obtained by using the method proposed by NCCLS (National Committee for Clinical Laboratory Standards, 1999).
# (§2) Various antibiotic concentrations were added to bacteria in exponental growth (final inoculum 5×10^5 […]); dilution in Mb (cation-supplemented Mueller-Hinton broth) and distribution on a microplate by using an automatic diluting machine Biomek 1000 (Beckman, USA). MHb charged with 2% NaCl was used to test the methicillin activity.
# (§3) The antibiotic concentration which hinders a visible growth after 18-24 hours of incubation at 37° C., was registered as MIC.
# (§4) S. aureus ATCC 29213 was used as quality control strain.
# [2] = system: S. aureus Met-R multiresistant strains; assay: MIC determination (NCCLS broth microdilution), methicillin-resistant multiresistant S. aureus strains; assay type: cell-based, Staphylococcus aureus; settings: Staphylococcus aureus; for MIC: antibiotype Oxa, Ery, read-out: MIC
# Procedure: as §1, §2, §3, §4
structure (smiles),measurement,setting,value
"CC[C@H]1OC(=O)[C@H](C)[C@@H](O[C@H]2C[C@@](C)(OC)[C@@H](O)[C@H](C)O2)[C@H](C)[C@@H](O[C@@H]2O[C@H](C)C[C@H](N(C)C)[C@H]2O)[C@](C)(O)C[C@@H](C)C(=O)[C@H](C)[C@@H](O)[C@]1(C)O [Erythromycin, erythromycin]",MIC,"[1]; Staphylococcus aureus, Strain 51 VISA, read-out: MIC",> 64 mg/L
same,MIC,[1]; Strain 52 VISA,>64 mg/L
same,MIC Range,[1]; VISA (2) Met-R,>64 mg/L
same,MIC,"[2]; Strain 1, Cip, Clin, Gm",> 64 mg/L
same,MIC,"[2]; Strain 2, Clin, Fos",> 64 mg/L
same,MIC,"[2]; Strain 3, Cip, Clin, Gm",> 64 mg/L
same,MIC,"[2]; Strain 4, Cip, Gm",> 64 mg/L
same,MIC,"[2]; Strain 5, Cip, Clin",> 64 mg/L
same,MIC,"[2]; Strain 6, Clin, Gm",> 64 mg/L
same,MIC,"[2]; Strain 7, Cip, Gm",> 64 mg/L
same,MIC,"[2]; Strain 8, Cip, Clin",> 64 mg/L
same,MIC,"[2]; Strain 9, Cip, Clin, Gm",> 64 mg/L
same,MIC,"[2]; Strain 10, Cip, Clin, Gm",> 64 mg/L
same,MIC,"[2]; Strain 11, Clin, Rif",> 64 mg/L
same,MIC,"[2]; Strain 12, Cip, Clin",> 64 mg/L
same,MIC,"[2]; Strain 13, Cip, Clin",> 64 mg/L
same,MIC,"[2]; Strain 14, Clin, Cip",> 64 mg/L
same,MIC,"[2]; Strain 15, Cip, Clin, Gm",> 64 mg/L
same,MIC,"[2]; Strain 16, Cip, Clin",> 64 mg/L
same,MIC,"[2]; Strain 17, Cip, Clin",> 64 mg/L
same,MIC,"[2]; Strain 18, Cip, Clin, Gm",> 64 mg/L
same,MIC,"[2]; Strain 19, Cip, Clin, Gm",> 64 mg/L
same,MIC,"[2]; Strain 20, Cip, Clin, Gm",> 64 mg/L
same,MIC,"[2]; Strain 21, Cip, Clin, Gm",> 64 mg/L
same,MIC,"[2]; Strain 22, Cip, Clin",> 64 mg/L
same,MIC,"[2]; Strain 23, Cip, Clin, Gm",> 64 mg/L
same,MIC,"[2]; Strain 24, Cip, Clin, Gm",> 64 mg/L
same,MIC,"[2]; Strain 25, Cip, Clin, Gm",> 64 mg/L
same,MIC,"[2]; Strain 26, Cip, Clin, Fos, Gm",> 64 mg/L
same,MIC,"[2]; Strain 27, Cip, Clin, Fos, Gm",> 64 mg/L
same,MIC,"[2]; Strain 28, Cip, Clin, Gm",> 64 mg/L
same,MIC,"[2]; Strain 29, Clin, Fos",> 64 mg/L
same,MIC,"[2]; Strain 30, Cip, Clin, Gm, SXT, Dox",> 64 mg/L
same,MIC,"[2]; Strain 31, Cip, Clin, Fox, Gm",> 64 mg/L
same,MIC,"[2]; Strain 32, Cip, Clin, Gm, SXT, Rif",> 64 mg/L
same,MIC,"[2]; Strain 33, Cip, Clin, Gm",> 64 mg/L
same,MIC,"[2]; Strain 34, Cip, Clin, Gm",> 64 mg/L
same,MIC,"[2]; Strain 35, Cip, Clin, Gm",> 64 mg/L
same,MIC,"[2]; Strain 36, Cip, Clin, Fos",> 64 mg/L
same,MIC,"[2]; Strain 37, Cip, Clin, Fos, Gm",64 mg/L
same,MIC,"[2]; Strain 38, Cip, Gm",> 64 mg/L
same,MIC,"[2]; Strain 39, Cip, Clin, Fos, Gm",64 mg/L
same,MIC,"[2]; Strain 40, Cip, Clin, Gm",> 64 mg/L
same,MIC,"[2]; Strain 41, Cip, Clin",> 64 mg/L
same,MIC,"[2]; Strain 42, Cip, Clin, Gm",> 64 mg/L
same,MIC,"[2]; Strain 43, Cip, Clin, Gm",> 64 mg/L
same,MIC,"[2]; Strain 44, Cip, Clin, Gm, Rif, Dox",> 64 mg/L
same,MIC,"[2]; Strain 45, Cip, Clin, Gm, Rif, Dox, Fos",> 64 mg/L
same,MIC,"[2]; Strain 46, Clin, Fos",> 64 mg/L
same,MIC,"[2]; Strain 47, Cip, Clin, Gm",> 64 mg/L
same,MIC,"[2]; Strain 48, Cip, Clin",> 64 mg/L
same,MIC,"[2]; Strain 49, Cip, Gm",> 64 mg/L
same,MIC,"[2]; Strain 50, Cip, Clin, Gm, Rif, Dox",> 64 mg/L
same,MIC50,"[2]; S. aureus (50) Met-R, read-out: MIC 50%",> 64 mg/L
same,MIC90,"[2]; S. aureus (50) Met-R, read-out: MIC 90%",> 64 mg/L
